Reference: patent publication US20120189627A1, “Semi-Synthetic GLP-1 Peptide-FC Fusion Constructs, Methods and Uses” (priority 2007, published 2012)
Ends that are not written are not given here.

Legend:
[1] = target: T1, GLP-1 Receptor (Rattus norvegicus, UniProt P32301); test: LANCE cAMP assay in INS-1E cells; assay type: cell-based; conditions: FIG. 1
T1 construct: endogenous in cells; host or cells: INS-1E cells
T1 sequence (P32301 22-463): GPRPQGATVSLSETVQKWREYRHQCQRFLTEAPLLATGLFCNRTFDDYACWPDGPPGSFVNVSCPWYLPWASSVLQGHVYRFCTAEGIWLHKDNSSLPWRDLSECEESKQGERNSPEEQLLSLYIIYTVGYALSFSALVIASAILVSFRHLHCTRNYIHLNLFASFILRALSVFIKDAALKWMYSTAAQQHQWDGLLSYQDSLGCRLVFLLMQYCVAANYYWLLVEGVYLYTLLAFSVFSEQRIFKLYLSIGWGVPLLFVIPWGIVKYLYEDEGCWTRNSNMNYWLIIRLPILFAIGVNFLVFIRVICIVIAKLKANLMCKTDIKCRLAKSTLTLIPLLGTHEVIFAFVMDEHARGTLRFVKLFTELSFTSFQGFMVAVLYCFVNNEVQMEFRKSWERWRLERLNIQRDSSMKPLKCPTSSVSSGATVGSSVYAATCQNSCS
Procedure: The peptide-conjugates were tested for activity using the cAMP assay which measures cAMP produced upon modulation of adenylyl cyclase activity by GPCRs. • cAMP Assay The LANCE™ cAMP assay (Hemmila I. 1999. LANCE™: Homogeneous Assay Platform for HTS. J Biomol Screen. 4(6), 303-308) is a homogeneous time-resolved fluorescence resonance energy transfer (TR-FRET) immunoassay. The assay is based on the competition between a europium-labeled cAMP tracer and sample cAMP for binding sites on cAMP-specific antibodies labeled with the dye Alexa Fluor® 647. The europium-labeled tracer complex is formed by the tight interaction between Biotin-cAMP and streptavidin labeled with Europium-W8044 chelate. When antibodies are bound to the Eu-SA/b-cAMP tracer, light pulse 340 nm excites the Eu-chelate molecules of the tracer. […] The fluorescence intensity measure at 665 nm will decrease in the presence of cAMP from the test samples and resulting signals will be inversely proportional to the cAMP concentration of a sample (LANCE cAMP manual). • Cells and Assay. […]
For the assay, INS-1E cells were plated at confluence in 96-well plates (Costar 3610) and allowed to recover for 4 days in normal growth media. […] The plates were incubated at room temperature for 1 hour and then fluorescence intensity was measured at 665 nm. Cyclic AMP concentrations were determined against a standard curve.

[2] = administered subcutaneously; cited from earlier work
[3] = type 2 diabetic patients, cited from earlier work

His-[D-Ala]-Glu-Gly-Thr-Phe-Thr-Ser-Asp-Val-Ser-Ser-Tyr-Leu-Glu-Gly-Gln-Ala-Ala-Lys-Glu-Phe-Ile-Ala-Trp-Leu-Val-Lys-Gly-Arg-Gly-(N-3-aminopropyl)-PEG3-NH—CO—CH2—NH—NH2 [Peptide 1]
bioactivity: ability to stimulate cAMP compared to wild-type GLP-1 [1]: no loss in bioactivity

GLP-1 (7-36) amide: GLP-1 (7-36) amide, GLP-1 peptide of the background section (HAEGTFTSDVSSYLEGQAAKEFIAWLVKGR-NH2; UniProt P01275 98-127, looked up)
time action [2]: about 50 minutes

GLP-1: Glucagon like peptide-1, peptide secreted from the L-cells of the intestine; given as six-week infusion (HAEGTFTSDVSSYLEGQAAKEFIAWLVKGRG-NH2; listed as Homo sapiens)
fasting and 8-hour mean plasma glucose levels ([3]; six-week infusion): lowered | β-cell function [3]: improvement
